Laboratory results published in US12365668B2, “Aminopyrazine diol compounds as PI3K-y inhibitors” (Incyte Corporation, priority 2018, dated 2025).

Columns and labels:
[1] = system: Phosphorylated Ribosomal Protein S6 (RPS6) in THP-1 cells; experiment: THP-1 RPS6 ELISA Assay; format: cell-based, Human; conditions: Homo sapiens, serum starved, 2 hours compound, 10 nM MCP-1 for 15 minutes, Phospho-RPS6 ELISA, read-out: PI3Kγ_THP1_RPS6_ELISA IC50
Experimental: Example A. THP-1 RPS6 ELISA Assay
To measure the Phosphorylated Ribosomal Protein S6 (RPS6) in cell lysates, THP-1 cells (Human Acute Monocytic Leukemia) are purchased from ATCC (Manassas, VA) and maintained in RPMI with 10% FBS (Gibco/Life Technologies, Carlsbad, CA). For the assay, THP-1 cells are serum starved overnight in RPMI, then plated in RPMI (2×10^5 cells/well in 90 μL) into 96-well flat-bottom tissue culture treated plates (Corning, Corning, NY), in the presence or absence of a concentration range of test compounds. Covered plates are incubated for 2 hours at 37° C., 5% CO2 then treated with or without 10 nM MCP-1(MYBioSource, San Diego, CA) for 15 minutes at 37° C., 5% CO2. Plates are centrifuged at 1600 RPM and supernatants are removed. Cells are lysed in Lysis Buffer (Cell Signaling, Danvers, MA) with Protease Inhibitor (Calbiochem/EMD, Germany), PMSF (Sigma, St Louis MO), HALTS (Thermo Fisher, Rockford, IL) for 30 min on wet ice. Cell lysates are frozen at −80° C. before testing. The lysates are tested in the Human/Mouse/Rat Phospho-RPS6 ELISA (R&D Systems, Inc. Minn, MN). The plate is measured using a microplate reader (SpectraMax M5—Molecular Devices, LLC Sunnyvale, CA) set to 450 nm with a wavelength correction of 540. IC50 determination is performed by fitting the curve of inhibitor percent inhibition versus the log of the inhibitor concentration using the GraphPad Prism 5.0 software.

[2] = target: PI3Kδ (p110δ/p85α) Recombinant Human Protein (Homo sapiens (Human), UniProt O00329); experiment: PI3Kδ Scintillation Proximity Assay; format: biochemical; conditions: 20 μM PIP2, 2 μM ATP, SPA
Chain of PI3Kδ (p110δ/p85α) Recombinant Human Protein (O00329 whole entry): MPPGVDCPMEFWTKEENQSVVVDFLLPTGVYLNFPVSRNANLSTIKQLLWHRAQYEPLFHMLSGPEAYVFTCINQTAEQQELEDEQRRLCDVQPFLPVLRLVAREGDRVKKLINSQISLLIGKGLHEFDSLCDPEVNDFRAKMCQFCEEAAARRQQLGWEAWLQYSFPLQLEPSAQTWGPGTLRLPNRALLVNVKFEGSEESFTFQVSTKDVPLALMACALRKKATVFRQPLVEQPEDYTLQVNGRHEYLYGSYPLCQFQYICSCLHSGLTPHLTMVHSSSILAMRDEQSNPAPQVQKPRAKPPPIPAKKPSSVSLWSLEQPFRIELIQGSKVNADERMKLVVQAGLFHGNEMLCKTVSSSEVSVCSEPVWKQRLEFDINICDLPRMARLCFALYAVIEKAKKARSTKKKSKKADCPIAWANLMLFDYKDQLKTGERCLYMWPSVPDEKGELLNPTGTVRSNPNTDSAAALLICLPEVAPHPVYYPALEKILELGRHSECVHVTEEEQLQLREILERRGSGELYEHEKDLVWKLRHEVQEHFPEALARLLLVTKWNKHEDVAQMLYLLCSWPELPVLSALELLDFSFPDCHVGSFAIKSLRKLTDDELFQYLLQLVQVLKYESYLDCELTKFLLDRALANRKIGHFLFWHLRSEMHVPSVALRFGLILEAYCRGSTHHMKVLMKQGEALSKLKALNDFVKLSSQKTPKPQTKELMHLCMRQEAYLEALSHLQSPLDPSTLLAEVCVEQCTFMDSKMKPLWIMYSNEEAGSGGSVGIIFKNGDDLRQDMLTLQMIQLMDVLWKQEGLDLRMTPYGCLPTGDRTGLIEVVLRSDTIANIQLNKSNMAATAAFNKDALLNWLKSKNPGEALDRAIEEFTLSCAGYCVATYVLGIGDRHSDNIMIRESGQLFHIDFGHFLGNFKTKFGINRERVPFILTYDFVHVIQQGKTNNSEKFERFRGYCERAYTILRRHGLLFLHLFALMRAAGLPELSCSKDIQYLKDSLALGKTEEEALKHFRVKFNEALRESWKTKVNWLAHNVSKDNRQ
Chain of PI3Kδ (p110δ/p85α) Recombinant Human Protein (P27986 whole entry partner): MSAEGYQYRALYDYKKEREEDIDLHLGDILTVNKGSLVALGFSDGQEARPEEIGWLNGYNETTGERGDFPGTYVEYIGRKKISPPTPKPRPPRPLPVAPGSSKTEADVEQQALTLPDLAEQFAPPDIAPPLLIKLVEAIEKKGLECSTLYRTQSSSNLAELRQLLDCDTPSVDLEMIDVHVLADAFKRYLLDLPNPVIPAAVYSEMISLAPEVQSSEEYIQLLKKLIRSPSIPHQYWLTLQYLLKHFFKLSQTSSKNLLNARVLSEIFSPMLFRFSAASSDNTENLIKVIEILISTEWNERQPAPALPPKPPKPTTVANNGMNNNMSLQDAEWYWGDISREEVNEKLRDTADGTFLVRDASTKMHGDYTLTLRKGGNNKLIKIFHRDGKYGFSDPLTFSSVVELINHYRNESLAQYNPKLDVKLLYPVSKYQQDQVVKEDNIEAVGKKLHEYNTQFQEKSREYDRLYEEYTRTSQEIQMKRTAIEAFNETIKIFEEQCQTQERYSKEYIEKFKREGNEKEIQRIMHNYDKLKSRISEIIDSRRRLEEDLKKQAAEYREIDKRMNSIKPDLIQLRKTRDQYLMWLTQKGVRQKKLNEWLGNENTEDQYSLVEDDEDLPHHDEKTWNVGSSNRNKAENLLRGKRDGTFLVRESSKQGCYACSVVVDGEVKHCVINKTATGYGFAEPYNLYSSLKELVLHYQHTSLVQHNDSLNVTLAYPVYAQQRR
Text: Example C. PI3Kδ Scintillation Proximity Assay Materials: [γ-^33P]ATP (10 mCi/mL) and Wheat Germ Agglutinin (WGA) YSi SPA Scintillation Beads was purchased from Perkin Elmer (Waltham, MA). Lipid kinase substrate, D-myo-Phosphatidylinositol 4,5-bisphosphate (PtdIns(4,5)P2)D (+)-sn-1,2-di-O-octanoylglyceryl, 3-O-phospho linked (PIP2), CAS 204858-53-7, was purchased from Echelon Biosciences (Salt Lake City, UT). PI3Kδ (p110δ/p85α) Recombinant Human Protein was purchased from Eurofins (St Charles, MO). ATP, MgCl2, DTT, EDTA, MOPS and CHAPS were purchased from Sigma Aldrich (St. Louis, MO). The kinase reaction was conducted in polystyrene 384-well Greiner Bio-one white plate from Thermo Fisher Scientific in a final volume of 25 μL. Inhibitors were first diluted serially in DMSO and added to the plate wells before the addition of other reaction components. The final concentration of DMSO in the assay was 2%. The PI3Kδ assay was carried out at room temperature in 20 mM MOPS, pH 6.7, 10 mM MgCl2, 5 mM DTT and CHAPS 0.03%. Reactions were initiated by the addition of ATP, the final reaction mixture consisted of 20 μM PIP2, 2 μM ATP, 0.5 μCi [γ-^33P] ATP, 3.4 nM PI3Kδ. Reactions were incubated for 120 min and terminated by the addition of 40 μL SPA beads suspended in quench buffer: 163 mM potassium phosphate pH 7.8, 20% glycerol, 25 mM EDTA. The final concentration of SPA beads is 1.0 mg/mL. After the plate sealing, plates were shaken overnight at room temperature and centrifuged at 1500 rpm for 10 min, the radioactivity of the product was determined by scintillation counting on Topcount (PerkinElmer). IC50 determination was performed by fitting the curve of percent of the solvent control activity versus the log of the inhibitor concentration using the GraphPad Prism 6.0 software.

[3] = target: PI3Kγ (p110γ) Recombinant Human Protein (Homo sapiens (Human), UniProt P48736); experiment: PI3K-γ Scintillation Proximity Assay; format: biochemical; conditions: 20 μM PIP2, 2 μM ATP, SPA
Chain of PI3Kγ (p110γ) Recombinant Human Protein (P48736 whole entry): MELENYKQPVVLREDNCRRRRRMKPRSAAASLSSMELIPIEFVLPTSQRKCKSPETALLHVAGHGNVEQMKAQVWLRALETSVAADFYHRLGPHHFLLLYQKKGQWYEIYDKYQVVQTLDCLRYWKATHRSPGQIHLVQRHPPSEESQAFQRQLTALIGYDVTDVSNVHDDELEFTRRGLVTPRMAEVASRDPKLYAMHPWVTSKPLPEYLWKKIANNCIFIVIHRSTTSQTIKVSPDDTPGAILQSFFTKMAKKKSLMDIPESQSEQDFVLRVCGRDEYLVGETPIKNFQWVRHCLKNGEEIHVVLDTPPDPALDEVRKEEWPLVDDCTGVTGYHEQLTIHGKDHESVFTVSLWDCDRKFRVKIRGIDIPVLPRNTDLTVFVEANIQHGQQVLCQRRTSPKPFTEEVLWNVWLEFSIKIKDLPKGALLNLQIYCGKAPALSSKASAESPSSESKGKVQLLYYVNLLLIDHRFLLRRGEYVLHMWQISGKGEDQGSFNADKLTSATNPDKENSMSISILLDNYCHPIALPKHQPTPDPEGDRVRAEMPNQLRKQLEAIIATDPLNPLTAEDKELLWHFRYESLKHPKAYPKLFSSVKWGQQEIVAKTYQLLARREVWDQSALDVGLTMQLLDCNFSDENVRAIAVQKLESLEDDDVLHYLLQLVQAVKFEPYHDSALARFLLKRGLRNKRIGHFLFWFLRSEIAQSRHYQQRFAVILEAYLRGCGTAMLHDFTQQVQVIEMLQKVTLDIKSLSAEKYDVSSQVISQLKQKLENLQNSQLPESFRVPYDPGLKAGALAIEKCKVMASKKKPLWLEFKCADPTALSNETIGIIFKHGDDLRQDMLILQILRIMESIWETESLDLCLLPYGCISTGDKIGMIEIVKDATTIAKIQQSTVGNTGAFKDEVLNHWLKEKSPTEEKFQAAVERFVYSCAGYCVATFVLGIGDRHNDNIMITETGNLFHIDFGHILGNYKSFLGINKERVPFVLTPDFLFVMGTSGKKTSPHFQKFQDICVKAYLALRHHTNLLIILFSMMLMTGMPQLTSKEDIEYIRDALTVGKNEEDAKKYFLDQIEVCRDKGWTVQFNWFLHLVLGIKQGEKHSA
Text: Example B. PI3K-γ Scintillation Proximity Assay Materials: [γ-^33P]ATP (10 mCi/mL) and Wheat Germ Agglutinin (WGA) YSi SPA Scintillation Beads was purchased from Perkin Elmer (Waltham, MA). Lipid kinase substrate, D-myo-Phosphatidylinositol 4,5-bisphosphate (PtdIns(4,5)P2)D (+)-sn-1,2-di-O-octanoylglyceryl, 3-O-phospho linked (PIP2), CAS 204858-53-7, was purchased from Echelon Biosciences (Salt Lake City, UT). PI3Kγ (p110γ) Recombinant Human Protein was purchased from Life technology (Grand Island, NY). ATP, MgCl2, DTT, EDTA, MOPS and CHAPS were purchased from Sigma Aldrich (St. Louis, MO). The kinase reaction was conducted in polystyrene 384-well Greiner Bio-one white plate from Thermo Fisher Scientific in a final volume of 25 μL. Inhibitors were first diluted serially in DMSO and added to the plate wells before the addition of other reaction components. The final concentration of DMSO in the assay was 2%. The PI3Kγ assay was carried out at room temperature in 20 mM MOPS, pH 6.7, 10 mM MgCl2, 5 mM DTT and CHAPS 0.03%. Reactions were initiated by the addition of ATP, the final reaction mixture consisted of 20 μM PIP2, 2 μM ATP, 0.5 μCi [γ-^33P] ATP, 13 nM PI3Kγ. Reactions were incubated for 120 min and terminated by the addition of 40 μL SPA beads suspended in quench buffer: 163 mM potassium phosphate pH 7.8, 20% glycerol, 25 mM EDTA. The final concentration of SPA beads is 1.0 mg/mL. After the plate sealing, plates were shaken overnight at room temperature and centrifuged at 1500 rpm for 10 min, the radioactivity of the product was determined by scintillation counting on Topcount (Perkin-Elmer). IC50 determination was performed by fitting the curve of percent of the solvent control activity versus the log of the inhibitor concentration using the GraphPad Prism 6.0 software.

## [2H]C([2H])([2H])c1ccc(C(O)(C(C)O)C(F)(F)F)cc1-c1cnc(N)c(C(=O)NC2CCOCC2)n1 (single isomer, unassigned) [Example 19, 3-Amino-6-(2-(methyl-d3)-5-(1,1,1-trifluoro-2,3-dihydroxybutan-2-yl)phenyl)-N-(tetrahydro-2H-pyran-4-yl)pyrazine-2-carboxamide]
[1]
  IC50: 100 to 500 nM

## Cc1ccc(C(O)(CO)C(F)(F)F)cc1-c1cnc(N)c(C2CC(C(=O)N3CC(O)C3)C2)n1 (single isomer, unassigned) [Example 24, (3-(3-Amino-6-(2-methyl-5-(1,1,1-trifluoro-2,3-dihydroxypropan-2-yl)phenyl)pyrazin-2-yl)cyclobutyl)(3-hydroxyazetidin-1-yl)methanone]
[1]
  IC50: 100 to 500 nM

## Cc1ccc([C@](O)(CO)C(F)F)cc1-c1cnc(N)c(C(=O)N[C@@H](C)CO)n1 (single isomer, unassigned) [Example 43]
[2]
  IC50: 100 to 500 nM
[1]
  IC50: 100 to 500 nM

## Cc1ccc(C(O)(CO)C(F)(F)F)cc1-c1cnc(N)c(-c2cnn(C)c2)n1 (stereo not shown) [Example 2, 2-(3-(5-Amino-6-(1-methyl-1H-pyrazol-4-yl)pyrazin-2-yl)-4-methylphenyl)-3,3,3-trifluoropropane-1,2-diol]
[3]
  IC50: ≤ 100 nM
[2]
  IC50: ≤ 100 nM

## Cc1ccc(C(O)(CO)C(F)(F)F)cc1-c1cnc(N)c(-c2cn[nH]c2)n1 (stereo not shown) [Example 3, 2-(3-(5-Amino-6-(1H-pyrazol-4-yl)pyrazin-2-yl)-4-methylphenyl)-3,3,3-trifluoropropane-1,2-diol]
[3]
  IC50: ≤ 100 nM
[2]
  IC50: ≤ 100 nM

## Cc1cc(-c2nc(-c3cc(C(O)(CO)C(F)(F)F)ccc3C)cnc2N)on1 (stereo not shown) [Example 4, 2-(3-(5-Amino-6-(3-methylisoxazol-5-yl)pyrazin-2-yl)-4-methylphenyl)-3,3,3-trifluoropropane-1,2-diol]
[3]
  IC50: ≤ 100 nM
[2]
  IC50: ≤ 100 nM

## Cc1ccc(C(O)(CO)C(F)(F)F)cc1-c1cnc(N)c(-c2cnsc2)n1 (stereo not shown) [Example 5, 2-(3-(5-Amino-6-(isothiazol-4-yl)pyrazin-2-yl)-4-methylphenyl)-3,3,3-trifluoropropane-1,2-diol]
[3]
  IC50: ≤ 100 nM
[2]
  IC50: ≤ 100 nM

## Cc1ccc(C(O)(CO)C(F)(F)F)cc1-c1cnc(N)c(-c2ccns2)n1 (stereo not shown) [Example 6, 2-(3-(5-Amino-6-(isothiazol-5-yl)pyrazin-2-yl)-4-methylphenyl)-3,3,3-trifluoropropane-1,2-diol]
[3]
  IC50: ≤ 100 nM
[2]
  IC50: ≤ 100 nM

## Cc1cc(-c2nc(-c3cc(C(O)(CO)C(F)(F)F)ccc3C)cnc2N)sn1 (stereo not shown) [Example 7, 2-(3-(5-amino-6-(3-methylisothiazol-5-yl)pyrazin-2-yl)-4-methylphenyl)-3,3,3-trifluoropropane-1,2-diol]
[3]
  IC50: ≤ 100 nM
[2]
  IC50: ≤ 100 nM

## Cc1ncc(-c2nc(-c3cc(C(O)(CO)C(F)(F)F)ccc3C)cnc2N)s1 (stereo not shown) [Example 10, 2-(3-(5-Amino-6-(2-methylthiazol-5-yl)pyrazin-2-yl)-4-methvlphenyl)-3,3,3-trifluoropropane-1,2-diol]
[3]
  IC50: ≤ 100 nM
[2]
  IC50: ≤ 100 nM

## Cc1ccc(C(O)(CO)C(F)(F)F)cc1-c1cnc(N)c(-c2cnco2)n1 (stereo not shown) [Example 11, 2-(3-(5-Amino-6-(oxazol-5-yl)pyrazin-2-yl)-4-methylphenyl)-3,3,3-trifluoropropane-1,2-diol]
[3]
  IC50: ≤ 100 nM
[2]
  IC50: ≤ 100 nM

## Cc1ccc(C(O)(CO)C(F)(F)F)cc1-c1cnc(N)c(-n2ccnn2)n1 (stereo not shown) [Example 13, 2-(3-(5-Amino-6-(1H-1,2,3-triazol-1-yl)pyrazin-2-yl)-4-methylphenyl)-3,3,3-trifluoropropane-1,2-diol]
[3]
  IC50: ≤ 100 nM
[2]
  IC50: ≤ 100 nM

## [2H]C([2H])([2H])c1ccc(C(O)(C(O)C(F)(F)F)C(F)(F)F)cc1-c1cnc(N)c(-c2c[nH]nc2C)n1 (stereo not shown) [Example 20, 2-(3-(5-Amino-6-(3-methyl-1H-pyrazol-4-yl)pyrazin-2-yl)-4-(methyl-d3)phenyl)-1,1,1,4,4,4-hexafluorobutane-2,3-diol]
[2]
  IC50: 100 to 500 nM

## Cc1ccc(C(O)(C(C)(C)O)C(F)(F)F)cc1-c1cnc(N)c(C(=O)NC2CCOCC2)n1 (stereo not shown) [Example 22, 3-Amino-6-(2-methyl-5-(1,1,1-trifluoro-2,3-dihydroxy-3-methylbutan-2-yl)phenyl)-N-(tetrahydro-2H-pyran-4-yl)pyrazine-2-carboxamide]
[2]
  IC50: 100 to 500 nM

## Cc1ccc(C(O)(CO)C(F)(F)F)cc1-c1cnc(N)c(C2CN(S(=O)(=O)c3ccn(C)n3)C2)n1 (stereo not shown) [Example 23, 2-(3-(5-Amino-6-(1-((1-methyl-1H-pyrazol-3-yl)sulfonyl)azetidin-3-yl)pyrazin-2-yl)-4-methylphenyl)-3,3,3-trifluoropropane-1,2-diol]
[2]
  IC50: 100 to 500 nM
[1]
  IC50: 100 to 500 nM

## [2H]C([2H])([2H])c1ccc([C@](O)(CO)C(F)(F)F)cc1-c1cnc(N)c(C(=O)N[C@H](C)CO)n1 [Example 36, 3-Amino-N-((R)-1-hydroxypropan-2-yl)-6-(2-(methyl-d3)-5-((S)-1,1,1-trifluoro-2,3-dihydroxypropan-2-yl)phenyl)pyrazine-2-carboxamide]
[1]
  IC50: 100 to 500 nM

## [2H]C([2H])([2H])c1ccc([C@](O)(CO)C(F)F)cc1-c1cnc(N)c(C(=O)N[C@H]2CCCC[C@@H]2O)n1 [Example 38, 3-Amino-6-(5-((S)-1,1-difluoro-2,3-dihydroxypropan-2-yl)-2-(methyl-d3)phenyl)-N-((1S,2S)-2-hydroxycyclohexyl)pyrazine-2-carboxamide]
[1]
  IC50: 100 to 500 nM

## [2H]C([2H])([2H])c1ccc([C@](O)(CO)C(F)F)cc1-c1cnc(N)c(C(=O)N[C@@H]2CCCC[C@H]2O)n1 [Example 39, 3-Amino-6-(5-((S)-1,1-difluoro-2,3-dihydroxypropan-2-yl)-2-(methyl-d3)phenyl)-N-((1R,2R)-2-hydroxycyclohexyl)pyrazine-2-carboxamide]
[1]
  IC50: 100 to 500 nM

## Cc1ccc([C@](O)(CO)C(F)F)cc1-c1cnc(N)c(C(=O)NC(C)C)n1 [Example 46, (S)-3-Amino-6-(5-(1,1-difluoro-2,3-dihydroxypropan-2-yl)-2-methylphenyl)-N-isopropylpyrazine-2-carboxamide]
[3]
  IC50: ≤ 100 nM
[2]
  IC50: ≤ 100 nM
